Assay [1] deals with ATR kinase (full-length ATR) (Homo sapiens (Human), UniProt Q13535). The experiment in a line: ATR inhibition assay (radioactive-phosphate incorporation). The assay is classed as biochemical. An outline of the steps:
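Ki(app) was fitted by non-linear regression to background-corrected initial rates. Full-length ATR (5 nM) phosphorylated 800 μM peptide using 10 μM [γ-33P]ATP at 25° C in Tris/HCl pH 7.5 buffer with MgCl2, DTT and 7% DMSO. After 10-minute compound pre-incubation and 24-hour reaction, phosphocellulose filters were scintillation counted.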

Assay [2] concerns the target ATR kinase, in the presence of partner proteins ATRIP, CLK2 and TopBP1 (Homo sapiens (Human), UniProt Q13535). The experiment in a line: ATR-complex inhibition assay (radioactive-phosphate incorporation). The assay is classed as biochemical. To be noted: Ki(app); 4 nM full-length ATR, 40 nM ATRIP, 40 nM CLK2, 600 nM TopBP1; 10 μM ATP; 25° C. As to the method: Compounds were screened for their ability to inhibit ATR kinase, in the presence of partner proteins ATRIP, CLK2 and TopBP1, using a radioactive-phosphate incorporation assay. Assays were carried out in a mixture of 50 mM Tris/HCl (pH 7.5), 10 mM MgCl2 and 1 mM DTT. Final substrate concentrations were 10 μM [g-33P]ATP (3.5 μCi 33P ATP/nmol ATP, Perkin Elmer, Massachusetts, USA) and 800 μM target peptide ([…]) (SEQ ID NO: 1); Isca Biochemicals, Cambridgeshire, UK).
Assays were carried out at 25° C. in the presence of 4 nM full-length ATR, 40 nM full-length ATRIP, 40 nM full-length CLK2 and 600 nM TopBP1 (A891-S1105). An enzyme stock buffer solution was prepared containing all of the reagents listed above, with the exception of target peptide, ATP and the test compound of interest. This enzyme stock was pre-incubated for 30 minutes at 25° C. 8.5 μL of the enzyme stock solution was placed in a 96-well plate followed by addition of 5 μl of target peptide and 2 μL of DMSO stock containing serial dilutions of the test compound (typically starting from a final concentration of 1.5 μM with 2.5-fold serial dilutions) in duplicate (final DMSO concentration 7%). The plate was pre-incubated for 10 minutes at 25° C. and the reaction initiated by addition of 15 μL [g-33P]ATP (final concentration 10 μM).
The reaction was stopped after […] by the addition of 30 μL 0.3 M phosphoric acid containing 2 mM ATP. A phosphocellulose filter 96-well plate (Multiscreen HTS MAPHNOB50, Merck-Millipore, Massachusetts, USA) was pretreated with 100 μL 0.1 M phosphoric acid prior to the addition of 45 μL of the stopped assay mixture. The plate was washed with 5×200 μL 0.1 M phosphoric acid. After drying, 50 μL Optiphase ‘SuperMix’ liquid scintillation cocktail (Perkin Elmer, Massachusetts, USA) was added to the well prior to scintillation counting (Wallac 1450 Microbeta Liquid Scintillation Counter, Perkin Elmer, Massachusetts, USA).
After removing mean background values for all of the data points, Ki(app) data were calculated from non-linear regression analysis of the initial rate data using the Prism software package (GraphPad Prism version 6.0c for Macintosh, GraphPad Software Inc., San Diego, USA).
Compounds with a Cisplatin sensitization value of <0.02 μM are marked with “+++.” Compounds with a Ki value >0.02 μM but <0.2 μM are marked with “++.” Compounds with a Ki value >0.2 μM but <5 μM are marked with “+.”

The mark [3] stands for this setting: Ki(app), 5 nM full-length ATR, 10 μM ATP, 25° C.

Read-outs that look alike come from different tables or passages of the source.

Sequence of ATR kinase (full-length ATR) (Q13535 whole entry): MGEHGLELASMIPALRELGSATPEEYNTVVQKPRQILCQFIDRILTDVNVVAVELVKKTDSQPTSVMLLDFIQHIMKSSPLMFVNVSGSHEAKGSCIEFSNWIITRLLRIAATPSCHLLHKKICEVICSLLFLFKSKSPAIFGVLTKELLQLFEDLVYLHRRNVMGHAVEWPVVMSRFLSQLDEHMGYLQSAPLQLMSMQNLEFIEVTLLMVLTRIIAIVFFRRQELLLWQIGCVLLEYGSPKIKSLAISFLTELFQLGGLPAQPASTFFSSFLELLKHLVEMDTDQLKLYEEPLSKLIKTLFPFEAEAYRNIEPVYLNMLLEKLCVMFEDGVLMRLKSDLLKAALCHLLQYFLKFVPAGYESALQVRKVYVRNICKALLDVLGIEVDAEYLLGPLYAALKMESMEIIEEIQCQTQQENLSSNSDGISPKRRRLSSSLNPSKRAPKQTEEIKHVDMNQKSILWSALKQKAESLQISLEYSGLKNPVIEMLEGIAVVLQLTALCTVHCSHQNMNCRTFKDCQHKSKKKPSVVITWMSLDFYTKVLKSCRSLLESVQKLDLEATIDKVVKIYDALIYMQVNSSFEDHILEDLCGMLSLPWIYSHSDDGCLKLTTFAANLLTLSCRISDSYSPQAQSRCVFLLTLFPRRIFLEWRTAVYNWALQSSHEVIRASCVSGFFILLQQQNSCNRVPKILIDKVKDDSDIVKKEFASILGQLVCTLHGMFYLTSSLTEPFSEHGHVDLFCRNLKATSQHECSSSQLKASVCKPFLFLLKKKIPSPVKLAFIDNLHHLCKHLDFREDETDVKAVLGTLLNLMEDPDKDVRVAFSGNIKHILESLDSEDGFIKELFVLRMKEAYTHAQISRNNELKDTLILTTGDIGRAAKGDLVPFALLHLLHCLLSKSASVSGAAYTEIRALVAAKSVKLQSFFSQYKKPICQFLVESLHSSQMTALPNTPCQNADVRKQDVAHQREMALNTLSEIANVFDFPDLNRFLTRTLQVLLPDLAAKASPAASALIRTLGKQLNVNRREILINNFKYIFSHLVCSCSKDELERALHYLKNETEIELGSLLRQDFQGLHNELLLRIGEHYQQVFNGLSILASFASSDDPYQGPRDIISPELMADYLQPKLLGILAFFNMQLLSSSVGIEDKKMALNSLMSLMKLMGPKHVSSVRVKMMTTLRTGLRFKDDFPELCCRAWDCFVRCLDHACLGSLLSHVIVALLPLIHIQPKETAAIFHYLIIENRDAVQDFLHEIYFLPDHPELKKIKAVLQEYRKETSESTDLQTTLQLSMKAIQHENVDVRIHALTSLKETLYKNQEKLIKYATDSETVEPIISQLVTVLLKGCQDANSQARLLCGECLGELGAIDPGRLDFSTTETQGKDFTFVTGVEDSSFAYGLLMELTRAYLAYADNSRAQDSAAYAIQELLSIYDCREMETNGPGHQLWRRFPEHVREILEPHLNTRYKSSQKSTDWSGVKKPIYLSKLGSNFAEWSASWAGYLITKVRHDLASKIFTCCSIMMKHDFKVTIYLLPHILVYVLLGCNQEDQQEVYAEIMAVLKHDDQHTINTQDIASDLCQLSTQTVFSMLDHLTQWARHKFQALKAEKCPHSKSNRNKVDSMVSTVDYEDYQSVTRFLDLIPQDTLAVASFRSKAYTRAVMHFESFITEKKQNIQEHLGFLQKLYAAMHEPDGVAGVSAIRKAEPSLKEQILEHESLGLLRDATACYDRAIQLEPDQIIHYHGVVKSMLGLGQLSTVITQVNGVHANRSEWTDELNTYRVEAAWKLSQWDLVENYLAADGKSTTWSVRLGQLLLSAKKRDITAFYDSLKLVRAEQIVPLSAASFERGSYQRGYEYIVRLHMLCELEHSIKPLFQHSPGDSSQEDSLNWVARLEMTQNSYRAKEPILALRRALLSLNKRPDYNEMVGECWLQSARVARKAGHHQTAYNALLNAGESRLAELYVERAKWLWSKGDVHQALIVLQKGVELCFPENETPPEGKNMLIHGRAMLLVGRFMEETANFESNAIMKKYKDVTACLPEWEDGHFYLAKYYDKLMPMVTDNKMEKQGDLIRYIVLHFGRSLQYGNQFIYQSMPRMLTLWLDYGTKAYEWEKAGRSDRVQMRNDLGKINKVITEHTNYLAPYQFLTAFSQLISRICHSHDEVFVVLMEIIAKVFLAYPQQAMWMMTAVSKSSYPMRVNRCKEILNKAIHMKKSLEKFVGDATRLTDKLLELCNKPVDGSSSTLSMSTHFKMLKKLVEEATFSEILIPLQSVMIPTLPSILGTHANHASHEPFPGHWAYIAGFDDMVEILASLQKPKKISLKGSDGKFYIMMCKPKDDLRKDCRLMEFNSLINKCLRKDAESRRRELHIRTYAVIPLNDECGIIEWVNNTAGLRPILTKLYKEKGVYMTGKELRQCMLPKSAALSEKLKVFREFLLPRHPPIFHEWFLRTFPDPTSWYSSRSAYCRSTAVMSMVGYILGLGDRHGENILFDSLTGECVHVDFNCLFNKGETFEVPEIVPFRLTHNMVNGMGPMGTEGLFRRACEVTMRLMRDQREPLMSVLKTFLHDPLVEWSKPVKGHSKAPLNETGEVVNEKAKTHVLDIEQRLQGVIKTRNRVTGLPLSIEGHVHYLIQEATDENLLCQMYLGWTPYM
Sequence of ATR kinase, in the presence of partner proteins ATRIP, CLK2 and TopBP1 (Q13535 whole entry): as above
Sequence of ATR kinase, in the presence of partner proteins ATRIP, CLK2 and TopBP1 (Q8WXE1 whole entry partner): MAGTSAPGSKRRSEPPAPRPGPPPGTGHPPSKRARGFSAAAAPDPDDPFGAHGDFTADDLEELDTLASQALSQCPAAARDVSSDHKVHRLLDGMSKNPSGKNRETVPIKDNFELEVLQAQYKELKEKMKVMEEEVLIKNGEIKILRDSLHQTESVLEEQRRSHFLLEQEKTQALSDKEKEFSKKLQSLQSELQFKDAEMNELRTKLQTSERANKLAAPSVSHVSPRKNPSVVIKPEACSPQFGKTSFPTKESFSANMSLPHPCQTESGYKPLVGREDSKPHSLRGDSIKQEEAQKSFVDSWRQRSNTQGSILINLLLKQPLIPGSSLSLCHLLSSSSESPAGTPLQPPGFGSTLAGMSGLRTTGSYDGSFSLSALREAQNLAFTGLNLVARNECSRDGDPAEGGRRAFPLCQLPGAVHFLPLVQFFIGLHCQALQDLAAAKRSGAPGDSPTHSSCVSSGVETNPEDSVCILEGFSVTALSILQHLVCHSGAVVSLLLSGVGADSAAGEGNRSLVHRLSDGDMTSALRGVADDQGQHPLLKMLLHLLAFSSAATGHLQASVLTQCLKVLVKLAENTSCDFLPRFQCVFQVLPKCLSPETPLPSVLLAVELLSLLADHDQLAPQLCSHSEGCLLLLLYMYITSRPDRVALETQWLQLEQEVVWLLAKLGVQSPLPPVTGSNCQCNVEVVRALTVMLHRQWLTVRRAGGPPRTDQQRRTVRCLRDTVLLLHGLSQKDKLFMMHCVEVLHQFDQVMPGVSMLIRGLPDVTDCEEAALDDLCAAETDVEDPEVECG

Turning to `Nc1nn2cc(F)cnc2c1C(=O)Nc1cncc(F)c1N1CCC(C(=O)N2CCNCC2)CC1` [I-G-12, 2-amino-6-fluoro-N-(5-fluoro-4-(4-(piperazine-1-carbonyl)piperidin-1-yl)pyridin-3-yl)pyrazolo[1,5-a]pyrimidine-3-carboxamide], the Ki in assay [1] (setting [3]) was 10 to 1000 nM; in assay [2], < 20 nM.
As for `Cc1nnccc1-c1ccncc1NC(=O)c1c(N)nn2cc(F)cnc12` [I-C-31, 2-amino-6-fluoro-N-(4-(3-methylpyridazin-4-yl)pyridin-3-yl)pyrazolo[1,5-a]pyrimidine-3-carboxamide], the Ki in assay [1] (setting [3]) is 10 to 1000 nM; in assay [2] it was < 20 nM.
On the same counts, the results for `Cn1cncc1-c1c(F)cncc1NC(=O)c1c(N)nn2cc(F)cnc12` [I-C-79, 2-amino-6-fluoro-N-(5-fluoro-4-(1-methyl-1H-imidazol-5-yl)pyridin-3-yl)pyrazolo[1,5-a]pyrimidine-3-carboxamide] are 10 to 1000 nM and < 20 nM.
As for `Nc1nn2cc(Cl)cnc2c1C(=O)Nc1cnccc1N1CCN(C2COC2)CC1` [I-N-58, 2-amino-6-chloro-N-(4-(4-(oxetan-3-yl)piperazin-1-yl)pyridin-3-yl)pyrazolo[1,5-a]pyrimidine-3-carboxamide], the results for the Ki in assay [1] (setting [3]) and in assay [2] were 10 to 1000 nM and < 20 nM, respectively.
For `Nc1nn2cc(F)cnc2c1C(=O)Nc1cncc(F)c1N1CCN2C(=O)CC[C@@H]2C1` [I-N-186, (R)-2-amino-6-fluoro-N-(5-fluoro-4-(6-oxohexahydropyrrolo[1,2-a]pyrazin-2(1H)-yl)pyridin-3-yl)pyrazolo[1,5-a]pyrimidine-3-carboxamide], the results for the Ki in assay [1] (setting [3]) and in assay [2] were 10 to 1000 nM and < 20 nM, respectively.
In the case of `CN1CCN(C(=O)c2ccc(-c3c(F)cncc3NC(=O)c3c(N)nn4cc(F)cnc34)cc2)CC1` [I-C-43, 2-amino-6-fluoro-N-(5-fluoro-4-(4-(4-methylpiperazine-1-carbonyl)phenyl)pyridin-3-yl)pyrazolo[1,5-a]pyrimidine-3-carboxamide], the Ki in assay [1] (setting [3]) was 10 to 1000 nM; in assay [2], < 20 nM.
As to `Nc1nn2cc(F)cnc2c1C(=O)Nc1cncc(F)c1N1CCC(C(=O)N2CCN3CCC2CC3)CC1` [I-G-7, N-(4-(4-(1,4-diazabicyclo[3.2.2]nonane-4-carbonyl)piperidin-1-yl)-5-fluoropyridin-3-yl)-2-amino-6-fluoropyrazolo[1,5-a]pyrimidine-3-carboxamide], the results for the Ki in assay [1] and in assay [2] were 10 to 1000 nM and < 20 nM, respectively.
On to `COC1CN(C(=O)C2CCN(c3c(F)cncc3NC(=O)c3c(N)nn4cc(F)cnc34)CC2)C1` [I-G-21, 2-amino-6-fluoro-N-(5-fluoro-4-(4-(3-methoxyazetidine-1-carbonyl)piperidin-1-yl)pyridin-3-yl)pyrazolo[1,5-a]pyrimidine-3-carboxamide], for which the Ki is 10 to 1000 nM in assay [1] (setting [3]) and < 20 nM in assay [2].
As for `Nc1nn2cc(F)cnc2c1C(=O)Nc1cncc(F)c1N1CCC(C(=O)N2CCN(C3COC3)CC2)CC1` [I-G-32, 2-amino-6-fluoro-N-[5-fluoro-4-[4-[4-(oxetan-3-yl)piperazine-1-carbonyl]-1-piperidyl]-3-pyridyl]pyrazolo[1,5-a]pyrimidine-3-carboxamide], the Ki in assay [1] (setting [3]) is 10 to 1000 nM; in assay [2] it was < 20 nM.
On the same counts, the results for `Nc1nn2cc(F)cnc2c1C(=O)Nc1cncc(F)c1N1CCN(C2COC2)CC1` [I-N-13, 2-amino-6-fluoro-N-(5-fluoro-4-(4-(oxetan-3-yl)piperazin-1-yl)pyridin-3-yl)pyrazolo[1,5-a]pyrimidine-3-carboxamide] are 10 to 1000 nM and < 20 nM.
On the same counts, the results for `CC(=O)N1CCN(c2c(F)cncc2NC(=O)c2c(N)nn3cc(F)cnc23)CC1` [I-N-275, N-(4-(4-acetylpiperazin-1-yl)-5-fluoropyridin-3-yl)-2-amino-6-fluoropyrazolo[1,5-a]pyrimidine-3-carboxamide] are 10 to 1000 nM and < 20 nM.

The values above are taken from patent publication US10392391B2 (Vertex Pharmaceuticals Incorporated, priority 2012, dated 2019).
